Assay results reported in article PMC6372612, “Immunoglobulin G modulation of the melanocortin 4 receptor signaling in obesity and eating disorders” (Translational Psychiatry, 2019).
“Also recorded” adds a separate entry of the source.

Key:
[1] = test system: human MC4R; experiment: cAMP production by MC4R-expressing HEK 293 cells; assay type: cell-based; details: AgRP 100 nM, 45 min preincubation or co-administered; n = 2/group
[2] = cited from earlier work
Text: In fact, the role of both the N- and C-terminals of α-MSH in binding to different MCR subtypes has been shown, with the C-terminal being essential for MC4R recognition. Thus hiding of the C-terminal by IgG in OB patients appears as a negative modulator of α-MSH/IgG IC activation of MC4R. […] 12–13 of the α-MSH C-terminal have also been detected in narcolept ...

[3] = test system: control HEK 293 cells lacking MC4R; experiment: cAMP production by control HEK 293 cells lacking MC4R; details: 15 min at 23 °C
[4] = test system: wild-type C57Bl/6 mice; experiment: Food intake in wild-type mice after IP α-MSH; assay type: in vivo, mouse; details: α-MSH 100 µg/kg IP, beginning of dark phase; vs basal food intake; n = 6
Method: Rag^−/− mice (n = 6), bred in a specific-pathogen-free area, were generously provided by Professor Olivier Boyer and a person, Inserm 1234, Rouen. Rag^−/− and C57Bl/6 male mice were individually housed in BioDaq® cages (Research Diets Inc., New Brunswick, NJ, USA) for 7 days, and the basal food intake of each animal was measured during the first 4 h of the dark phase. At day 8, IP injections of α-MSH (100 µg/kg, Bachem) were performed at the beginning of the dark phase. Individual food intake after injection was compared to the basal food intake of the pretreatment period.
Upon arrival into the animal facility, male C57Bl/6 mice (7 weeks – n=6) purchased from Janvier Labs and Rag^-/- mice (generated by the Inserm UMR905 laboratory in a specific-pathogen-free area, n=6) were housed in standard cages (3 mice per cage) in environmental conditions (23 ± 1 °C, 12:12 h light-dark cycle) with standard pellet rodent chow and water available ad libitum. After 7 days of acclimatization, animals were individually housed in BioDaq® cages (Research Diets Inc., New Brunswick, NJ, USA) that provide automatic food intake measurements. During 7 days, the basal food intake of each animal was measured during the first 4 hours of the dark phase. At day 8, intraperitoneal injections of a-MSH (100 µg/kg, Bachem) were performed at the beginning of the dark phase. […]

[5] = test system: male Sprague-Dawley rats; experiment: Food intake in rats after intra-PVN injection of α-MSH or α-MSH/IgG IC; assay type: in vivo, rat; details: intra-PVN 2 µL α-MSH 2.5 mg/mL; 12-h fasted rats; vs aCSF
Method: Animal care and experimentation were in accordance with guidelines established by the National Institutes of Health, French and European Community regulations (Official Journal of the European Community L 358, 18/12/1986) and the study was approved by a Regional Ethical Committee (Rouen, France). Sample sizes were selected based on previous experiments. Non-randomized male Sprague-Dawley rats were anesthetized by ketamine (75 mg/kg, Virbac, Carros, France)/xylazine (5 mg/kg, Bayer, Leverkusen, France) solution (3:1 vol., 0.1 mL/100 g, intraperitoneal (IP)) and were stereotaxically implanted with a 9-mm guide cannula (PlasticsOne, Roanoke, VA, USA) into the paraventricular nucleus (PVN). Upon awakening, rats were individually maintained in metabolic cages (Techniplast, Louviers, France) for 5–6 days. […] Food intake was measured 30 min and 2 h after injection.
Animal care and experimentation were in accordance with guidelines established by the National Institutes of Health, French and European Community regulations (Official Journal of the European Community L 358, 18/12/1986). […] Food intake was measured 30 min and 2 h after injection. […]

[6] = target: human melanocortin 4 receptor (human) (UniProt P32245)
human melanocortin 4 receptor (human), sequence (P32245 whole entry): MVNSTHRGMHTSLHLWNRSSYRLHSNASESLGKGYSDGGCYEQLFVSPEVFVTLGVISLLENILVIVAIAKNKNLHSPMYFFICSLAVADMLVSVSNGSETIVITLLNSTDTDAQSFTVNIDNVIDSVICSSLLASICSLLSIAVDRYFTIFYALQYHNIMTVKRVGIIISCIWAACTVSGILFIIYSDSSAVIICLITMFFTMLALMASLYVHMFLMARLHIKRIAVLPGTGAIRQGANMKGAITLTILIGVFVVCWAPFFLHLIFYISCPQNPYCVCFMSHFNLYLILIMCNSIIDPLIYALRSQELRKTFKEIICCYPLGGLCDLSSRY

[7] = target: human melanocortin 4 receptor (human) (UniProt P32245); experiment: SPR; BIAcore 1000; hMC4R-expressing HEK 293 cells coated on the biosensor surface; analyte α-MSH in immune complex with IgG from obese patients; Langmuir 1:1 fit after blank subtraction

agouti-related protein (SSRRCVRLHESCLGQQVPCCDPCATCYCRFFNAFCYCRKLGTAMNPCSRT; UniProt O00253 83-132, looked up) [AgRP]
antagonism of α-MSH- and α-MSH/IgG IC-induced cAMP production [1]: antagonized both α-MSH- and α-MSH/IgG IC-induced cAMP production

adrenocorticotropic hormone [ACTH]
functional activity when central part of ACTH is bound by IgG [2]: preserved its functional activity to stimulate cortisol secretion

α-melanocyte-stimulating hormone [α-MSH]
cAMP production by control HEK 293 cells lacking MC4R, in words [3]: no significant α-MSH-induced cAMP production; also recorded: did not observe cAMP production | 4-h food intake in wild-type mice [4]: significantly reduced food intake | anorexigenic effect, cumulative food intake at 30 min [5]: significant anorexigenic effect | anorexigenic effect, cumulative food intake at 120 min [5]: significant anorexigenic effect

α-melanocyte-stimulating hormone (peptide)
EC50 of cAMP release by hMC4R-expressing HEK 293 cells, IC formed by α-MSH and IgG from controls and ED patients, against free α-MSH [6]: 50% | fold lower affinity than in IC with IgG from controls [7]: 10 fold
